# Data from patent US9765074B2, “Inhibitors of the renal outer medullary potassium channel” (Merck Sharp & Dohme Corp., priority 2013, dated 2017).
# Target: T1, hROMK (hKir1.1) (Homo sapiens, UniProt P48048)
# T1 construct: expressed in transfected cells
# T1 sequence (P48048 1-391): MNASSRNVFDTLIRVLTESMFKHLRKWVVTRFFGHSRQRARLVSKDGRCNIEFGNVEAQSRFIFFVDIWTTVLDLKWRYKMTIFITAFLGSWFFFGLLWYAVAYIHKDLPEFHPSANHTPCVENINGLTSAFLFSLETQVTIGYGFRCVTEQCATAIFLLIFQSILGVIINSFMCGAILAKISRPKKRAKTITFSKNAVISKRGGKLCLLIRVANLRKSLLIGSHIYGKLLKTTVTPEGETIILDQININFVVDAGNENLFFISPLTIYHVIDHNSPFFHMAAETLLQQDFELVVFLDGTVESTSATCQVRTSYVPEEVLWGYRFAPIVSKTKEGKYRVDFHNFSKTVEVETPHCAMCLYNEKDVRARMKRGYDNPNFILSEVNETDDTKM
# Assay: Thallium Flux Assay (ROMK channel functional thallium flux, FLIPR-Tetra)
# Assay type: cell-based
# Details: HEK293 cells stably expressing hROMK (hKir1.1); 30 min compound incubation
# Description: The following Thallium Flux Assay was performed on each of the final product compounds in the Examples.
# Cell Culture Conditions—HEK293 cells stably expressing hROMK (hKir1.1) were grown at 37° C. in a 10% CO2 humidified incubator in complete growth media: Dulbecco's Modified Eagle Medium supplemented with non-essential amino acids, Penicillin/Streptomycin/Glutamine, G418 and FBS. At >80% confluency, aspirate the media from the flask and rinse with 10 mL Calcium/Magnesium-free PBS. Add 5 mL of 1× trypsin (prepared in Ca/Mg Free PBS) to T-225 flask and return flask to 37° C./CO2 incubator for 2-3 minutes. To dislodge the cell, gently bang the side of the flask with your hand. Triturate the cells completely and then transfer the cells to 25 mL complete media. Centrifuge at 1,500 rpm for 6 min followed by resuspension in complete growth media and determine cell concentration. For typical re-seeding, 4E6 cells/T-225 flask will attain >80% confluency in 4 days. Under ideal growth conditions and appropriate tissue culture practices, this cell line is stable for 40-45 passages. FluxOR Kit Components (Invitrogen F10017) • FluxOR™ Reagent (Component A) • FluxOR™ Assay Buffer (Component B)—10× Concentrate • PowerLoad™ Concentrate (Component C)—100× Concentrate • Probenecid (Component D)—Lyophilized sample is kept at −20° C. Water soluble, 100× after solubilization in 1 mL water. Store at 4° C. • FluxOR™ Chloride-free Buffer (Component E)—5× Concentrate • Potassium sulfate (K2SO4) Concentrate (Component F)—125 mM in water. Store at 4° C. • Thallium sulfate (Tl2SO4) Concentrate (Component G)—50 mM in water. Store at 4° C. • DMSO (dimethyl sulfoxide, Component H)—1 mL (100%) Reagent Preparation: FluxOR Working Solutions • 1000× FluxOR™ Reagent: Reconstitute a vial of component A in 100 μl DMSO; Mix well; Store 10 μl aliquots at −20° C. • 1× FluxOR™ Assay Buffer: Dilute Component B 10-fold with water; Adjust pH to 7.4 with Hepes/NaOH; Filter and store at 4° C. • Probenecid/Assay Buffer: 100 mL of 1× FluxOR™ Assay Buffer; 1 mL of reconstituted component D; Store at 4° C. • Loading Buffer (per microplate): 10 μl 1000× FluxOR™ Reagent; 100 μl component C; 10 mL Probenecid/Assay Buffer • Compound Buffer (per microplate): 20 mL Probenecid/Assay Buffer; 0.3 mM ouabain (10 mM ouabain in water can be stored in amber bottle/aluminum foil at room temperature); Test compound • 1× FluxOR™ Chloride-Free Buffer: Prepare 1× working solution in water. Can be stored at room temperature • Stimulant Buffer (prepared at 5× final concentration in 1× FluxOR™ Chloride-Free Buffer): 7.5 mM Thallium sulfate and 0.75 mM Potassium sulfate (to give a final assay concentration of 3 mM Thallium/0.3 mM Potassium). Store at 4° C. when not in use. If kept sterile, this solution is good for months. Assay Protocol—The ROMK channel functional thallium flux assay is performed in 384 wells, using the FLIPR-Tetra instrument. HEK-hKir1.1 cells are seeded in Poly-D-Lysine microplates and kept in a 37° C.-10% CO2 incubator overnight. On the day of the experiment, the growth media is replaced with the FluxOR™ reagent loading buffer and incubated, protected from light, at ambient temperature (23-25° C.) for 90 min. The loading buffer is replaced with assay buffer±test compound followed by 30 min incubation at ambient temperature, where the Thallium/Potassium stimulant is added to the microplate. Step Protocol • 1. Seed HEK-hKir1.1 cells (50 μl at 20,000 cells/well) in 384-well PDL coated Microplates • 2. Allow cells to adhere overnight in humidified 37° C./10% CO2 incubator • 3. Completely remove cell growth media from microplate and replace with 25 μl loading buffer • 4. Incubate Microplate at room temperature, protected form light, for 90 min • 5. Remove loading buffer and replace with 25 μl 1× Assay Buffer±test compound. • 6. Incubate microplate at room temperature, protected from light, for 30 min • 7. At FLIPR-Tetra 384: Add stimulant (Thallium/Potassium) solution to microplate and monitor fluorescence. […]
row,SMILES,IC50 [nM]
1,"CC1=C(N2CCC3(CCN(C[C@@H](O)c4ccc(-n5cnnn5)cn4)CC3)C2=O)COC1=O [Example 23, 8-{(2R)-2-hydroxy-2-[5-(1H-tetrazol-1-yl)pyridin-2-yl]ethyl}-2-(4-methyl-5-oxo-2,5-dihydrofuran-3-yl)-1-oxo-2-aza-8-azoniaspiro[4.5]decane]",20
2,"CC1=C(N2C(=O)C3(CCN(C[C@H](O)c4ccc(-n5cnnn5)nc4)CC3)CC2C)COC1=O (single isomer, unassigned) [Example 65]",10
3,"O=C1C=C(N2C(=O)C3(CCN(C[C@H](O)c4cnc(-n5cnnn5)cn4)CC3)CC2CF)CO1 (single isomer, unassigned) [Example 205]",30
4,"CC1=C(N2CCC3(CCN(C[C@@H](O)c4nnc(-n5cnnn5)c(C)c4C)CC3)C2=O)COC1=O [Example 70, 8-{(2R)-2-[4,5-dimethyl-6-(1H-tetrazol-1-yl)pyridazin-3-yl]-2-hydroxyethyl}-2-(4-methyl-5-oxo-2,5-dihydrofuran-3-yl)-1-oxo-2-aza-8-azoniaspiro[4.5]decane]",30
5,"CC1CC2(CCN(CCc3cnc(-n4cnnn4)cn3)CC2)C(=O)N1C1=CC(=O)OC1 (single isomer, unassigned) [Example 242, 3-methyl-1-oxo-2-(5-oxo-2,5-dihydrofuran-3-yl)-8-{2-[5-(1H-tetrazol-1-yl)pyrazin-2-yl]ethyl}-2-aza-8-azoniaspiro[4.5]decane]",40
6,"CC1=C(N2CCC3(CCN(C[C@H](O)c4ccc(-n5cnnn5)nn4)CC3)C2=O)COC1=O [Example 32, 8-{(2S)-2-hydroxy-2-[6-(1H-tetrazol-1-yl)pyridazin-3-yl]ethyl}-2-(4-methyl-5-oxo-2,5-dihydrofuran-3-yl)-1-oxo-2-aza-8-azoniaspiro[4.5]decane]",20
7,"COC1CN(C[C@H](O)c2cnc(-n3cnnn3)cn2)CCC12CCN(C1=C(C)C(=O)OC1)C2=O (single isomer, unassigned) [Example 172]",180
8,"CC1=C(N2CCC3(CCN(C[C@@H](O)c4ccc(-n5cnnn5)cc4)CC3)C2=O)COC1=O [Example 35, 8-{(2S)-2-hydroxy-2-[4-(1H-tetrazol-1-yl)phenyl]ethyl}-2-(4-methyl-5-oxo-2,5-dihydrofuran-3-yl)-1-oxo-2-aza-8-azoniaspiro[4.5]decane]",10
9,"CC1OC(=O)C=C1N1C(=O)C2(CCN(C[C@H](O)c3ccc(-n4cnnn4)nc3)CC2)C[C@@H]1C (single isomer, unassigned) [Example 229]",280
10,"CC1=C(N2C(=O)C3(CCN(C[C@@H](O)c4cnc(-n5cnnn5)cn4)CC3)CC2C)COC1=O (single isomer, unassigned) [Example 68]",230
11,"COc1cc(-n2cnnn2)ccc1[C@@H](O)CN1CCC2(CC1)CCN(C1=CC(=O)OC1)C2=O [Example 15, 8-{(2R)-2-hydroxy-2-[2-methoxy-4-(1H-tetrazol-1-yl)phenyl]ethyl}-1-oxo-2-(5-oxo-2,5-dihydrofuran-3-yl)-2-aza-8-azoniaspiro[4.5]decane]",10
12,"CC1=C(N2CCC3(CCN(C[C@@H](O)c4cccc(-n5cnnn5)n4)CC3)C2=O)COC1=O [Example 74, 8-{(2R)-2-hydroxy-2-[6-(1H-tetrazol-1-yl)pyridin-2-yl]ethyl}-2-(4-methyl-5-oxo-2,5-dihydrofuran-3-yl)-1-oxo-2-aza-8-azoniaspiro[4.5]decane]",90
13,"CC1=C(N2CCC3(CCN(CCc4cnc(-n5cnnn5)cc4CO)CC3)C2=O)COC1=O [Example 250, 8-{2-[4-(hydroxymethyl)-6-(1H-tetrazol-1-yl)pyridin-3-yl]ethyl}-2-(4-methyl-5-oxo-2,5-dihydrofuran-3-yl)-1-oxo-2-aza-8-azoniaspiro[4.5]decane]",80
14,"COc1nc(-n2cnnn2)ccc1[C@H](O)CN1CCC2(CC1)CCN(C1=C(C)C(=O)OC1)C2=O [Example 150, 8-{(2S)-2-hydroxy-2-[2-methoxy-6-(1H-tetrazol-1-yl)pyridin-3-yl]ethyl}-2-(4-methyl-5-oxo-2,5-dihydrofuran-3-yl)-2,8-diazaspiro[4.5]decan-1-one]",20
15,"COc1nc(-n2cnnn2)ccc1[C@@H](O)CN1CCC2(CC1)CCN(C1=C(C)C(=O)OC1)C2=O [Example 149, 8-{(2R)-2-hydroxy-2-[2-methoxy-6-(1H-tetrazol-1-yl)pyridin-3-yl]ethyl}-2-(4-methyl-5-oxo-2,5-dihydrofuran-3-yl)-2,8-diazaspiro[4.5]decan-1-one]",20
16,"CC1=C(N2CCC3(CC4COCC(C3)N4C[C@H](O)c3ccc(-n4cnnn4)nc3)C2=O)COC1=O (stereo partly drawn) [Example 180, 9-{(2R)-2-hydroxy-2-[6-(1H-tetrazol-1-yl)pyridin-3-yl]ethyl}-1′-(4-methyl-5-oxo-2,5-dihydrofuran-3-yl)-2′H-spiro[7-oxa-9-azabicyclo[3.3.1]nonane-3,3′-pyrrolidin]-2′-one]",40
17,"CC1=C(N2CCC3(CCN(C[C@@H](O)c4ccc(-n5cnnn5)cc4C)CC3)C2=O)COC1=O [Example 39, 8-{(2S)-2-hydroxy-2-[2-methyl-4-(1H-tetrazol-1-yl)phenyl]ethyl}-2-(4-methyl-5-oxo-2,5-dihydrofuran-3-yl)-1-oxo-2-aza-8-azoniaspiro[4.5]decane]",10
18,"CC1=C(N2C(=O)C3(CCN(C[C@H](O)c4cnc(-n5cnnn5)nc4)CC3)CC2C)COC1=O (single isomer, unassigned) [Example 113]",80
19,"CC1CC2(CC3CCC(C2)N3C[C@@H](O)c2cnc(-n3cnnn3)cn2)C(=O)N1C1=CC(=O)OC1 (single isomer, unassigned) [Example 90]",40
20,"CC1CC2(CC3CCC(C2)N3C[C@@H](O)c2ccc(-n3cnnn3)nc2)C(=O)N1C1=CC(=O)OC1 (single isomer, unassigned) [Example 103]",10
21,"CC1=C(N2CCC3(CCN(C[C@H](O)c4ccc(-n5cnnn5)nc4)CC3F)C2=O)COC1=O (single isomer, unassigned) [Example 192]",10
22,"COc1cc(-n2cnnn2)ccc1[C@H](O)CN1CCC2(CC1)CCN(C1=C(C)C(=O)OC1)C2=O [Example 120, 8-{(2S)-2-hydroxy-2-[2-methoxy-4-(1H-tetrazol-1-yl)phenyl]ethyl}-2-(4-methyl-5-oxo-2,5-dihydrofuran-3-yl)-1-oxo-2-aza-8-azoniaspiro[4.5]decane]",10
23,"O=C1C=C(N2CCC3(CCN(C[C@H](O)c4ccc(-n5cnnn5)nc4)CC3)C2=O)CO1 [Example 1, 8-{(2R)-2-Hydroxy-2-[6-(1H-tetrazol-1-yl)pyridin-3-yl]ethyl}-1-oxo-2-(5-oxo-2,5-dihydrofuran-3-yl)-2-aza-8-azoniaspiro[4.5]decane]",10
